Measured values from patent US11767316B2, “Non-fused thiophene derivatives and their uses” (ENYO PHARMA, priority 2018, dated 2023).

What was measured:
[1] = test system: MAXF 401; test: Cytotoxicity, propidium iodide based monolayer assay, MAXF 401; format: cell-based; details: Homo sapiens, MAXF401, 96 h; MAXF 401 (breast adeno carcinoma), four days of treatment, T/C=50%; read-out: Absolute IC50
Method: (§1) The cytotoxicity was tested for compounds of the invention on five different cell-lines, namely LXFL 1121, MAXF 401, MMXF L-636, PRXF PC-3M and UXF 1138 which are respectively lung large cell carcinoma, breast adeno carcinoma, multiple myeloma, prostate adeno carcinoma and uterine sarcoma.
(§2) A working stock solution of the test compounds was prepared in DMSO at a concentration of 33 mM or 8.25 mM, and small aliquots were stored at −20° C. On each day of an experiment, a frozen aliquot of the working stock solution was thawed and stored at room temperature prior to and during treatment.
(§3) All liquid handling steps were performed using the Tecan Freedom EVO 200 platform. First, serial 2-fold dilutions of the 33 mM DMSO working stock solution were done in DMSO. […]
(§4) A modified propidium iodide (PI) based monolayer assay was used to assess the anti-cancer activity of the compounds. Briefly, cells were harvested from exponential phase cultures, counted and plated in 96 well flat-bottom microtiter plates at a cell density of 4,000 to 40,000 cells/well dependent on the cell line's growth rate. […] After an incubation period of 1-2 hours at room temperature, fluorescence (FU) was measured using the Enspire Multimode Plate Reader (excitation λ=530 nm, emission λ=620 nm) to quantify the amount of attached viable cells. […]

[2] = test system: MMXF L-363; test: Cytotoxicity, propidium iodide based monolayer assay, MMXF L-363; format: cell-based; details: Homo sapiens, 96 h; MMXF L-363 (multiple myeloma), four days of treatment, T/C=50%; read-out: Absolute IC50
Method: as §1, §2, §3, §4

[3] = test system: diabetic mice model; test: HbA1c in diabetic mice model (db/db); format: in vivo; details: PO 7 or 20 mg/kg BID or 40 mg/kg QD, 28 days of dosing, FIG. 1
Method: Compound #16 has been tested on a diabetic mice model. […] Therefore, this compound can be useful for treating diabetes.
Male db/db (BKS.Cg-m 1/1 Leprdb/J) mice aged 6 weeks at the time of arrival were obtained from Janvier (France) and acclimatized to their new environment. Animals were housed in groups of 2 in a light, temperature and humidity-controlled room (a 12-hour light/dark cycle, with lights off at 4 PM; 23+/−1° C.; 50% relative humidity). All animals had free access to standard Purina 5008 chow (LabDiet) and domestic-quality tap water.
The study was initiated in mice aged 8 weeks. Three days before first dosing, a blood sample was collected for determination of baseline blood glucose and hemoglobin A1c (HbA1c) levels. Based on these baseline HbA1c and fed blood glucose levels, mice were stratified into treatment groups (n=10) receiving vehicle (CMC (1.5% W/V) Sigma (ref.C9481), Tween 80 (0.25% V/V) Sigma (ref.59924) in water) or orally administered Compound #16 as follows: • 7 mg/kg, PO BID (twice a day) • 20 mg/kg, PO BID (twice a day) • 40 mg/kg PO QD (Once a day)
Throughout the experimental period, body weight and food and water intake were measured daily in the morning.
Animals were terminated after a total of 28 days of dosing. […]

SMILES: O=C(Nc1scc(C2CCc3ccccc3C2)c1C(=O)O)c1ccccc1 (stereo not drawn) [#16]
- IC50 [1]: 507 nM
- IC50 [2]: 357 nM
- Change of glycated hemoglobin, HbA1C [3]: capable of reducing glycated hemoglobin
